# Assay results: the NIST ThermoML archive (doi:10.1016/j.jct.2006.07.023)
# Values joined by “and” are separate entries in the source; they are usually repeats but may differ in a detail not shown here. Equal entries are not always repeated. Numbers after ± are expanded uncertainties.
# Experiments:
# [1] = Molar enthalpy of transition or fusion; settings: DSC
# [2] = DTA
SMILES,Molar enthalpy of transition or fusion ([1]; Crystal),Triple point temperature ([2]; Crystal),Glass transition temperature [2],Molar enthalpy of transition or fusion ([1]; Metastable crystal),Triple point temperature ([2]; Metastable crystal)
CC(=O)[O-].CC(=O)[O-].[Pb+2] [lead(2+) acetate],3.78 ± 0.0956 kcal/mol,452.3 ± 1.6 K,41.2 ± 3 °C,–,–
CCCC(=O)[O-].CCCC(=O)[O-].[Pb+2] [lead(2+) dibutanoate],3.51 kcal/mol and 3.49 kcal/mol,346.5 ± 0.7 K and 346.3 ± 0.9 K,1.8 ± 3 °C,1.84 ± 0.191 kcal/mol,322.8 ± 1.1 K
CCC(=O)[O-].CCC(=O)[O-].[Pb+2] [lead(2+) dipropanoate],3.13 ± 0.0956 kcal/mol,398.1 ± 1.1 K,25 ± 3 °C,–,–
